Results published in patent US7585639B1, “Methods for modulating ATP-binding cassette transmembrane reporter protein expression” (Trustees of Dartmouth College, priority 1999, dated 2009).

Tests used:
[1] = system: wild-type CFTR mRNA expression; experiment: CFTR mRNA expression in HT-29 human colon cell line; assay type: cell-based; conditions: HT-29 cells
Method: Experiments were performed which identified specific agents that increase functional cell surface expression of the ΔF508 CFTR protein. […] However, a rapid increase in CFTR mRNA to 1.5-fold over controls was seen by 48 hours and remained high through the end of the experiment.

CFTR protein levels = CFTR protein levels by western blotting using anti-CFTR antibodies in T84 cells; assay type: cell-based
Method: (§1) The correlation between increased levels and increased functional CFTR in the cell membrane was also examined either by measuring chloride permeability using MQAE fluorescence or trans-epithelial chloride currents using the Ussing chamber assay. […] Dox increased total cellular CFTR protein levels by 1.6- to 2-fold in T84 cells, and levels were maximal at approximately 18 to 24 hours after treatment. […] Dox increased the amount of cell surface-detectable CFTR by approximately 2.5- to 3-fold in these cells. Dox treatment of T84 cells was also determined to increase CFTR-associated chloride currents by approximately 2.1-fold as measured by the Using chamber assay and to increase chloride permeability by approximately 2-fold as measured by MQAE fluorescence in these cells.

CFTR [2] = experiment: Trans-epithelial chloride currents, Ussing chamber assay, T84 cells; assay type: cell-based
Method: as §1

CFTR [3] = experiment: Chloride permeability by MQAE fluorescence, T84 cells; assay type: cell-based
Method: as §1

MDCK-C7 cells = experiment: Chloride currents in wild-type parental MDCK-C7 cells (control); assay type: cell-based, canine
Method: (§2) The ability of Dox to increase functional expression of ΔF508 CFTR in a similar manner was then assessed. In initial experiments, the effects of Dox on ΔF508 CFTR expression were examined in a canine kidney MDCK-derived cell line that had been stably transfected with a human ΔF508 CFTR cDNA construct expressed under the control of a CMV promoter. As controls, the effects of Dox on CFTR expression in the wild-type parental MDCK-C7 cells from which the stable cell line was derived and an MDCK-derived cell line stably transfected with GFP-tagged wild-type human CFTR also under the control of the CMV promoter were examined. Dox had no effect on chloride currents in either controls.

[4] = system: GFP-tagged wild-type human CFTR; experiment: Chloride currents in MDCK-derived cell line stably transfected with GFP-tagged wild-type human CFTR (control); assay type: cell-based; conditions: MDCK cells with GFP-tagged wild-type human CFTR
Method: as §2

GFP-Pgp = conditions: MDR29 cells
human ΔF508 CFTR = experiment: Chloride currents in MDCK-derived cell line stably transfected with human ΔF508 CFTR cDNA (CMV promoter); assay type: cell-based; conditions: MDCK cell line expressing human ΔF508 CFTR; statistically significant
Method: as §2

[5] = system: MDR4, MDR10, MDR29 and parental MDCK-C7 cells; conditions: dog, 3 days
Method: Cells were plated in 96 well plates (Fisher, Medford, Mass.) at a density of 1000 cells per well. Twenty-four hours after plating, the cells were dosed with 0-10 μM Dox in serum-free media as described above. The cells were incubated for three days and assayed using the CellTiter 96 AQueous One Solution Reagent (Promega Corp., Madison, Wis.) using the manufacturer's instructions. The data were collected and analyzed using the Softmax software. A cytotoxicity assay was also performed with cisplatin (0-30 μM) as described above.

Row | Compound | effect on CFTR mRNA expression ([1]; between 0 and 36 hours after treatment) | increase in CFTR mRNA over controls ([1]; by 48 hours, remained high through end of experiment) | CFTR mRNA expression over a 72 hour period ([1]; single non-toxic treatment, over 72 hours) | mature CFTR protein levels (CFTR protein levels) | increase in CFTR-associated chloride currents (CFTR [2]) | increase in chloride permeability (CFTR [3]) | effect on chloride currents (MDCK-C7 cells) | effect on chloride currents [4] | membrane Pgp levels (GFP-Pgp; 24-72 hour period after treatment) | cellular GFP levels (GFP-Pgp; compared with Pgp membrane levels) | increase in chloride currents (human ΔF508 CFTR) | EC50 for cytotoxicity (colony formation), MDR cell lines relative to parental cell line [5]
1 | CO[C@@]12[C@H](COC(N)=O)C3=C(C(=O)C(C)=C(N)C3=O)N1C[C@@H]1N[C@@H]12 [MMC, mitomycin C] | Little or no effect | 1.5 fold | significant increase | significantly increased | approximately 1.2 fold | – | – | – | – | – | – | –
2 | COc1cccc2c1C(=O)c1c(O)c3c(c(O)c1C2=O)C[C@@](O)(C(=O)CO)C[C@@H]3O[C@H]1C[C@H](N)[C@H](O)[C@H](C)O1 [Dox, doxorubicin] | – | – | – | – | approximately 2.1 fold | approximately 2 fold | no effect | no effect | progressive and substantial increase | increased earlier and to a greater extent | approximately 1.7 fold | 2.5-3.5 fold
